Data on five compounds can be found in publication PMC5585923, “Isolation and characterization of the compounds responsible for the antimutagenic activity of Combretum microphyllum (Combretaceae) leaf extracts” (BMC Complementary and Alternative Medicine, 2017).

In brackets after ≈: the same amount, converted by molar mass. Where two headings read alike, the source gives them in different places.

One data set can be described thus: MTT cytotoxicity assay. The data set is classed as cell-based. The settings on record: human; for viability at 2 days, 200 μg/ml: 200 μg/ml (highest concentration tested), read-out: percentage cell viability. The procedure:
(§1) Briefly, the cells were maintained in minimal essential medium supplemented with 10% foetal calf serum and sodium pyruvate. Cell suspensions were prepared from confluent monolayer cultures and plated at a density of 5 × 10^4 cells/ml and a total of 200 μl of the cell suspension was plated in a 96-well culture plate. After incubation at 37 °C in a 5% CO2 incubator, the cells were treated with different concentrations of the isolated compounds ranging from 10 to 200 μg/ml and incubated for 2 days. Doxorubicin chloride was used as the positive control. The wells were washed with PBS and fresh medium (200 μl) was then added to the wells. MTT (Sigma) dissolved in PBS (30 μl) was added to each well and incubated for 4 h at 37 °C. The medium was removed and MTT formazan crystals were dissolved in 50 μl DMSO. The amount of MTT reduction was measured immediately by detecting the absorbance using a microplate reader (BioTek Synergy, Analytical and Diagnostic Products, South Africa) at a wavelength of 570 nm. The percentage of cell viability was calculated using the formula below: %cell viability=Mean Absorbance of sample/Mean Absorbance of control×100
(§2) The intensity of the MTT formazan produced by living metabolically active cells is directly proportional to the number of live cells present (Mosmann, [14]).

Data set [1] can be described thus: DPPH free radical scavenging (antioxidant) assay. The settings on record: tested 100 to 0.048 μg/ml. The procedure:
The DPPH free radical scavenging spectrophotometric method described by Mensor et al. and modified by Aderogba et al. was used to evaluate the quantitative antioxidant activity. Reactions were carried out in 96-well microtitre plates and each of the isolated compounds was tested at varying concentrations ranging from 100 to 0.048 μg/ml. Blank solutions were prepared with methanol only while the negative control was DPPH solution (20 μl plus 50 μl methanol). Test sample solution contained compounds serially diluted in methanol. Methanol served as a blank for the microplate reader and the decrease in absorbance was measured at 515 nm. Percentage antioxidant activity (AA%) values were calculated from the absorbance values using the formula: AA%=100−Abssample–Absblank×100/Abscontrol
(Abs sample is the absorbance of the sample, Abs blank is the absorbance of the blank and Abs control is the absorbance of the control). L-ascorbic acid (vitamin C) was used as a positive control (antioxidant agent). The EC50 value, defined as the concentration of the sample leading to 50% reduction of the initial DPPH concentration, was calculated from the separate linear regression of plots of the mean percentage of the antioxidant activity against concentration of the test extracts obtained from the three replicate assays. The results are expressed as EC50 values obtained from the regression plots.
Background: The DPPH test is a chemical assay of radical scavenging.

Data set [2] concerns Salmonella typhimurium TA102. In words: Ames test, antimutagenicity against MMC, TA102. The note with it: for antimutagenic activity: TA102, against MMC. In general terms: In the Ames test, an excess of revertant colonies over the control signals mutagenicity.
Description: (§3) Briefly, 100 μl of bacterial stock were incubated in 20 ml of Oxoid Nutrient broth for 16 h at 37 °C on a rotary shaker. Of this overnight culture, 0.1 ml was added to 2.0 ml of top agar (containing histidine-biotin) together with 0.1 ml test solution and 0.5 ml phosphate buffer. […] To determine antimutagenicity, the test solution contained 50 μl test sample and 50 μl positive control). The top agar mixture was poured over the surface of a minimal agar plate and incubated for 48 h at 37 °C. After incubation the numbers of revertant colonies (mutants) in each plate were counted.
(§4) Where T is the number of revertants per plate in the presence of mutagen and the test solution and M is the number of revertants per plate in the positive control. All cultures were prepared in triplicate (except for the solvent control where five replicates were used). Absence of toxicity was confirmed when a background layer of bacterial growth, which should normally be present was observed.
Data set [3] relates to Salmonella typhimurium TA98. In words: Ames test, antimutagenicity against 4-NQO, TA98. The settings on record: for antimutagenic activity: TA98, against 4-NQO.
Description: as §3, §4
Data set [4] deals with Salmonella typhimurium TA98. In words: Ames test, mutagenicity, TA98.
For data set [5], the system named is Salmonella typhimurium TA100. In words: Ames test, antimutagenicity against 4-NQO, TA100. The note with it: for antimutagenic activity: TA100, against 4-NQO.
Description: as §3, §4
For data set [6], the system named is Salmonella typhimurium TA100. In words: Ames test, mutagenicity, TA100.
Data set [7] deals with Ehrlich ascites carcinoma (EAC) cell line. Also on record: method as in Ramesh and colleagues (2012). The settings on record: EAC cells, 100 μg/ml, ref Ramesh and colleagues (2012); cited from earlier work.
In data set [8] the test system is human hepatocellular carcinoma (C3A) cells. In words: MTT cytotoxicity assay. Type of data set: cell-based. The note with it: Homo sapiens; C3A cells, 200 μg/ml; read-out: inhibition of cell growth. The procedure:
as §1, §2
In general terms: Tetrazolium assays rely on reduction of a dye to a coloured formazan, in cell work by metabolically active cells.

Details of data set [9]: method as in earlier work. The note with it: 100 μg/ml, cell-free system, ref 22 Manna et al.; cited from earlier work.
Data set [10] deals with Dalton's lymphoma (DLA) cell line. Also on record: method as in Ramesh and colleagues (2012). The settings on record: DLA cells, 100 μg/ml, ref Ramesh and colleagues (2012); cited from earlier work.
The mark [11] stands for this setting: C3A hepatocellular carcinoma cells, C3A cells, MTT, 2 days, 10 to 200 μg/ml, read-out: LC50.

Consider `COc1cccc2c1C(=O)c1c(O)c3c(c(O)c1C2=O)C[C@@](O)(C(=O)CO)C[C@@H]3O[C@H]1C[C@H](N)[C@H](O)[C@H](C)O1` [Doxorubicin, Doxorubicin chloride, reference compound], for which the CC50 at 2 days in “MTT cytotoxicity assay” was 640 ± 32 nM.
As for `O=C1O[C@H]([C@@H](O)CO)C(O)=C1O` [Ascorbic acid, L-ascorbic acid, reference compound], the “EC50, DPPH free radical scavenging” value in data set [1] came to 0.51 ± 0.08 µg/mL (≈ 2.9 µM).
For the compound `CCCCCCCCCCCCCCCCCCCCCCCCO` [n-Tetracosanol, n-tetracosanol], the “antimutagenic activity” value in [2], in data set [3] and in data set [5] was “least active compound” in each case. In addition, the viability at 2 days, 200 μg/ml in “MTT cytotoxicity assay” (C3A hepatocellular carcinoma cells, C3A cells) worked out at 59.7 ± 7.23%. In addition, the CC50 at 2 days in “MTT cytotoxicity assay” (setting [11]) is above 200 µg/mL. For the same compound, the “Mean number of revertant colonies per plate (±SD)” value (“Mean number … per plate (±SD)” below) in [4] (TA98, 5 μg/ml) is given as 23.67 ± 4.51; in data set [4] (TA98, 50 μg/ml) it was 35.67 ± 9.71; in data set [4] (TA98, 500 μg/ml), 30.00 ± 7.81; in data set [6] (TA100, 5 μg/ml) it was 127.00 ± 7.21; in data set [6] (TA100, 50 μg/ml), 121.33 ± 2.52; in data set [6] (TA100, 500 μg/ml), 125.00 ± 8.18. Further, in [1], the “EC50, DPPH free radical scavenging” value is above 100 µg/mL.
As for `CC1(C)CC[C@]2(C(=O)O)CC[C@]3(C)C(=CC[C@@H]4[C@@]5(C)C[C@@H](O)[C@H](O)[C@@](C)(CO)[C@@H]5CC[C@]43C)[C@@H]2C1` [Arjunolic acid, arjunolic acid], the inhibition at 500 µg/mL was 44 ± 0.18% in data set [2] (Salmonella enterica, TYPHIMURIUM, read-out: percentage antimutagenicity (inhibition of mutagenic effect of MMC), TA102, 500 μg/ml (highest concentration tested), MMC 1 μg/ml); 42 ± 9.6% in data set [3] (Salmonella enterica, TYPHIMURIUM, read-out: percentage antimutagenicity (inhibition of mutagenic effect of 4-NQO), TA98, 500 μg/ml (highest concentration tested), 4-NQO 2 μg/ml); 36 ± 1.5% in data set [5] (Salmonella enterica, TYPHIMURIUM, read-out: percentage antimutagenicity (inhibition of mutagenic effect of 4-NQO), TA100, 500 μg/ml (highest concentration tested), 4-NQO 1 μg/ml). The “percentage antimutagenicity (inhibition of mutagenic effect of MMC)” value in data set [2] (TA102, 500 μg/ml (highest concentration tested), MMC 1 μg/ml) was at most 43.78 ± 0.18%. The “antimutagenic activity” value in [2], in data set [3] and in data set [5] was “most active” throughout. Besides, the “inhibition of cell growth” value in [7] and in data set [10] was “up to 70%” in each case. For the same compound, the inhibition at 200 µg/mL in data set [8] stood at 66%. The CC50 at 2 days in “MTT cytotoxicity assay” (setting [11]) came out at 106 ± 5.11 µg/mL. Further, the “Mean number … per plate (±SD)” value in data set [4] (TA98, 5 μg/ml) amounted to 26.67 ± 1.15; in data set [4] (TA98, 50 μg/ml) it was 28.33 ± 3.78; in [4] (TA98, 500 μg/ml) it was 33.00 ± 2.65; in [6] (TA100, 5 μg/ml), 107.33 ± 1.15; in data set [6] (TA100, 50 μg/ml) it was 104.33 ± 2.52; in data set [6] (TA100, 500 μg/ml), 109.00 ± 8.72. Also, the “EC50, DPPH free radical scavenging” value in [1] was determined as 6.25 ± 0.29 µg/mL (≈ 12.8 µM). Also, in data set [9], the “DPPH free radical scavenging activity” value is “up to 80%”. The “percentage antimutagenicity (inhibition of mutagenic effect of 4-NQO)” value in data set [5] (TA100, 500 μg/ml (highest concentration tested), 4-NQO 1 μg/ml) is recorded as at most 35.84 ± 1.45%.
Consider `CCCCCCCCCCCCCCCCCCCC(=O)O` [Eicosanoic acid, eicosanoic acid], for which, in “MTT cytotoxicity assay”, the CC50 at 2 days was above 200 µg/mL. Moreover, in the data set “MTT cytotoxicity assay” (C3A cells), the viability at 2 days, 200 μg/ml worked out at 50.1 ± 6.21%. Further, the “Mean number … per plate (±SD)” value in data set [4] (TA98, 5 μg/ml) was found to be 28.67 ± 5.51; in [4] (TA98, 50 μg/ml) it was 29.33 ± 4.04; in data set [4] (TA98, 500 μg/ml) it was 27.77 ± 1.53; in data set [6] (TA100, 5 μg/ml), 112.33 ± 2.89; in [6] (TA100, 50 μg/ml), 102.67 ± 4.73; in data set [6] (TA100, 500 μg/ml), 108.67 ± 5.03. Besides, the “EC50, DPPH free radical scavenging” value in data set [1] is above 100 µg/mL.

The viability is a read-out of living cells in per cent, often relative to untreated cells.
